Molecules are shown by their SMILES.

Holding throughout (type): cell-based
The subject of experiment [1] is 17 HPV-negative HNSCC and cervical squamous cancer cell lines. The experiment can be described thus: High-throughput drug screen (HTDS), cell death by AOC_LD, HPV-negative cell lines. Particulars: for HPV negative Sensitive (number of cell lines): sensitive = AOC_LD greater than 0; for HPV negative Resistant (number of cell lines): resistant = AOC_LD 0. As for the experimental part: (§1) The concordance correlation coefficient was computed to assess the reproducibility of the normalized growth rates of the 2 replicates. […] A chi-square test was applied to compare drug classification and the cluster membership. The Fisher exact test was applied to compare mutations status (wild-type and mutant) and drugs' response data (sensitive and resistant).
(§2) The effects of 864 unique drugs from 51 classes was tested in 16 HPV-positive and 17 HPV-negative HNSCC and cervical squamous cancer cell lines (Table 2) that were characterized previously (Kaiu, et al., Oncotarget 2017; 8(49):86369-83).

The test system of experiment [2] is 16 HPV-positive HNSCC and cervical squamous cancer cell lines. The experiment can be described thus: High-throughput drug screen (HTDS), cell death by AOC_LD, HPV-positive cell lines. The note with it: for HPV positive Sensitive (number of cell lines): sensitive = AOC_LD greater than 0; for HPV positive Resistant (number of cell lines): resistant = AOC_LD 0. As for the experimental part: as §1, §2

Experiment [3] has as its system 16 HPV-positive and 17 HPV-negative HNSCC and cervical squamous cancer cell lines. As to the kind of experiment: High-throughput drug screen (HTDS), whole panel, comparison by HPV status. The note with it: for efficacy in HPV-positive vs HPV-negative cell lines: AOC_LD as a dichotomous variable. The method, then:
as §1, §2

For the compound `COc1cc2c(c(OC)c1OC)-c1ccc(OC)c(=O)cc1[C@@H](NC(C)=O)CC2` [COLCHICINE], the “HPV negative Sensitive (number of cell lines)” value (from here on “HPV negative Sensitive”) in experiment [1] worked out at 10. Besides, in experiment [2], the “HPV positive Sensitive (number of cell lines)” value (“HPV positive Sensitive” for short) came to 15.

With `CNC(=O)c1ccccc1Sc1ccc2c(/C=C/c3ccccn3)n[nH]c2c1` [AXITINIB], in experiment [1], the “HPV negative Resistant (number of cell lines)” value (“HPV negative Resistant” for short) was 16 and the “HPV negative Sensitive” value turned out to be 1. In experiment [2], the “HPV positive Resistant (number of cell lines)” value (“HPV positive Resistant” for short) is 8 and the “HPV positive Sensitive” value was determined as 8.

As to `COc1cc([C@@H]2c3cc4c(cc3[C@@H](O[C@@H]3O[C@@H]5CO[C@@H](C)O[C@H]5[C@H](O)[C@H]3O)[C@H]3COC(=O)[C@H]23)OCO4)cc(OC)c1O` [ETOPOSIDE], in experiment [1], the “HPV negative Resistant” value amounted to 15 and the “HPV negative Sensitive” value is listed as 2. For the same compound, in experiment [2], the “HPV positive Resistant” value came out at 7 and the “HPV positive Sensitive” value is 9.

Regarding `CO[C@H]1C[C@@H]2CC[C@@H](C)[C@@](O)(O2)C(=O)C(=O)N2CCCC[C@H]2C(=O)O[C@H]([C@H](C)C[C@@H]2CC[C@@H](OP(C)(C)=O)[C@H](OC)C2)CC(=O)[C@H](C)/C=C(\C)[C@@H](O)[C@@H](OC)C(=O)[C@H](C)C[C@H](C)/C=C/C=C/C=C/1C` [ridaforolimus], in experiment [3] (at concentrations known to inhibit mTOR), the cell death entry is listed as “caused cell death only in a single cell line”.

In the case of `Cc1csc(-c2nnc(Nc3ccc(Oc4ncccc4-c4ccnc(N)n4)cc3)c3ccccc23)c1` [AMG900], the “efficacy in HPV-positive vs HPV-negative cell lines” value in experiment [3] is listed as “tended to be more effective in HPV-positive cell lines”.

Take `CCS(=O)(=O)c1cccc(-c2cc(C(=O)NC3CCN(C)CC3)c(C)c3[nH]c4ncc(C)cc4c23)c1` [TAK901]: the “efficacy in HPV-positive vs HPV-negative cell lines” value in experiment [3] is “tended to be more effective in HPV-positive cell lines”.

As to `COc1ccc([C@@H]2CC(=O)c3c(O)cc(O[C@@H]4O[C@H](CO[C@@H]5O[C@@H](C)[C@H](O)[C@@H](O)[C@H]5O)[C@@H](O)[C@H](O)[C@H]4O)cc3O2)cc1O` [hesperidin], in experiment [3], the “efficacy in HPV-positive vs HPV-negative cell lines” value is given as “more effective in HPV-positive than in HPV-negative cell lines”.

For the compound `O=C(Nc1c[nH]nc1-c1nc2ccc(CN3CCOCC3)cc2[nH]1)NC1CC1` [AT9283], in experiment [1], the “HPV negative Resistant” value is listed as 10 and the “HPV negative Sensitive” value was found to be 7. Also, in experiment [2], the “HPV positive Resistant” value is listed as 3 and the “HPV positive Sensitive” value stood at 13.

For `Nc1nc(F)nc2c1ncn2[C@@H]1O[C@H](CO)[C@@H](O)[C@@H]1O` [FLUDARABINE], in experiment [1], the “HPV negative Resistant” value amounted to 6 and the “HPV negative Sensitive” value is listed as 11. In experiment [2], the “HPV positive Resistant” value was 13 and the “HPV positive Sensitive” value came to 3.

Take `COc1cc(NS(C)(=O)=O)ccc1Nc1c2ccccc2nc2ccccc12` [AMSACRINE]: in experiment [1], the “HPV negative Resistant” value was found to be 15 and the “HPV negative Sensitive” value was found to be 2. In experiment [2], the “HPV positive Resistant” value is 5 and the “HPV positive Sensitive” value amounted to 11.

For the compound `Cc1cc(CN2CCN(c3c(Br)cnc4nc(-c5ccc(N6CCN(C)CC6)cc5)[nH]c34)CC2)no1` [CCT137690], the “efficacy in HPV-positive vs HPV-negative cell lines” value in experiment [3] is given as “tended to be more effective in HPV-positive cell lines”.

Turning to `CN1CCN(c2ccc3nc(-c4c(N)c5c(F)cccc5[nH]c4=O)[nH]c3c2)CC1` [DOVITINIB], in experiment [1], the “HPV negative Resistant” value stood at 16 and the “HPV negative Sensitive” value amounted to 1. Further, in experiment [2], the “HPV positive Resistant” value was determined as 10 and the “HPV positive Sensitive” value is 6.

Turning to `O=C(O)[C@]1(Cc2cccc(Nc3nccs3)n2)CC[C@@H](Oc2cccc(Cl)c2F)CC1` [MK5108], the “efficacy in HPV-positive vs HPV-negative cell lines” value in experiment [3] was “tended to be more effective in HPV-positive cell lines”.

As for `CCc1cccc(CC)c1NC(=O)N1Cc2n[nH]c(NC(=O)c3ccc(N4CCN(C)CC4)cc3)c2C1` [PHA680632], the “efficacy in HPV-positive vs HPV-negative cell lines” value in experiment [3] is given as “tended to be more effective in HPV-positive cell lines”.

(Values after patent US20260258420A1, “COMPOSITIONS AND METHODS FOR THE TREATMENT OF HUMAN PAPILLOMAVIRUS-DRIVEN CANCERS” (priority 2023, published 2026).)
